Data published in patent publication US11247994B2, “6-dithio-substituted-2′-deoxyguanosine compound, preparation method thereof and use thereof” (ZHEJIANG UNIVERSITY, priority 2018, dated 2022).
pIC50: −log10 of the molar value. Read-outs that look alike come from different tables or passages of the source.

Tests used:
[1] = tested on: human melanoma cells A375; test: MTT assay, tumor cell growth inhibition, A375; type: cell-based; settings: A-375, 48 hours
Description: (§1) MTT Assay—Inhibitory Effect of 6-dithio-substituted-2′-deoxyguanosine Derivatives on Tumor Cell Growth
(§2) We measured the tumor cell growth inhibitory activity of candidate compounds by MTT assay. Human tumor cells in logarithmic growth phase were digested with 0.25% pancreatin for a certain time, centrifuged, re-suspended and counted with a blood cell counting plate to prepare a cell suspension, and the cell suspension was adjusted to 1.0×10^4-1×10^5 cells/mL. The cell suspension was inoculated into a 96-well culture plate, 100 μL per well, and cultured in an incubator with saturated humidity, 37° C. and 5% CO2 for 24 hours until the cells completely adhered to the wall. The test compound was diluted to the required concentration with a complete medium, the complete medium of the 96-well culture plate inoculated with human tumor cells was sucked out, a medicament-containing medium was added, 100 μL per well, the final concentration of DMSO was less than 0.1%, and the culture plate was put in an incubator for 48 hours. 10 μl of MTT was added to each well of the 96-well plate, and the culture was continued for 4 h. The culture was stopped and the culture solution in the well was carefully sucked off. 150 μL DMSO was added to each well, and shaken at a low speed for 10 min on a shaking table, so that the crystal was fully dissolved. The absorbance of each well was measured at OD 570 nm of an enzyme-linked immunosorbent assay instrument. At the same time, zeroing wells (the culture medium, MTT, dimethyl sulfoxide) and control wells (cells, a drug dissolution medium with the same concentration, a culture solution, MTT, dimethyl sulfoxide) were set up, and the cell growth inhibitory activity was calculated with the corresponding solvents as the control. 3-6 multiple wells in each group were set up with repetition of several times. Cell viability of control=(Adrug group−Azeroing well)/(Acontrol well−Azeroing well)*100%. Drawing was drawn, the data were fitted into a concentration response curve with a variable slope, and IC50 value was calculated from the curve.

TrxR/Trx-1 = biological target: T1, TrxR/Trx-1 (Homo sapiens, UniProt P10599); test: Ellman test, inhibition of TrxR/Trx-1 activity; type: biochemical
T1 sequence (P10599 2-105 limits assumed): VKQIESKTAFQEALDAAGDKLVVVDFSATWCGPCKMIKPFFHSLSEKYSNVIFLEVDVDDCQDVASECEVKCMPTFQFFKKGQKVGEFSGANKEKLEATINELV
Description: Ellman Test—Inhibitory Effect of 6-dithio-substituted-2′-deoxyguanosine Derivative Analogues on TrxR/Trx-1 Activity
A TrxR/TR experiment based on the Ellman reaction was used to determine the inhibitory activity of candidate compounds. Ellman reaction is that 5,5′-dithiobis (2-nitrobenzoic acid) (DTNB) reacts with sulfhydryl (—SH) to form a yellow substance with absorption at 412 nm. The increase of absorption can be equivalent to the decrease of NADPH mediated by TrxR, thus further judging the activity of TrxR/Trx-1. All experiments were carried out on 96-well plates. Before the start of the enzyme reaction, five groups of corresponding test compound stock solutions with different concentrations were prepared. In the TrxR/Trx-1 reaction, a total volume per well was 60 μL, including 100 mM HEPES, 5 mM EDTA (HE buffer, pH 7.5), 1 mM NADPH, 1.0 μM TrxR, 0.8 μM Trx-1, 2.5 mg/mL bovine insulin and the required concentration of compounds to be tested. No compound to be tested was added to the control group. No compound to be tested, TrxR and Trx-1 were added in the blank group. The plate was shaken on an oscillator for 30 seconds to fully mix the reactants. After incubation at 37° C. for 30 min, 100 μL of the prepared mixture containing 6 M guanidine hydrochloride, 50 mm Tris and 10 mm DTNB was added to terminate the reaction. After 15 minutes of incubation, the absorbance was measured at 412 nm. Finally, TrxR/Trx-1 activity %=(Atest−Akb)/(Acontrol−Akb), that is, the relative percentage of TrxR/Trx-1 activity was the activity inhibited by adding 2′-deoxyguanosine derivatives relative to the activity without 2′-deoxyguanosine derivatives. The data were fitted into a concentration response curve with a variable slope, and the IC50 value was calculated from the curve.

[2] = tested on: human liver cancer cells HepG2; test: MTT assay, tumor cell growth inhibition, HepG2; type: cell-based; settings: 48 hours
Description: as §1, §2

[3] = tested on: human colon cancer cells HT29; test: MTT assay, tumor cell growth inhibition, HT29; type: cell-based; settings: HT-29, 48 hours
Description: as §1, §2

[4] = tested on: human leukemia cells K562; test: MTT assay, tumor cell growth inhibition, K562; type: cell-based; settings: 48 hours
Description: as §1, §2

[5] = tested on: human breast cancer cells Bcap37; test: MTT assay, tumor cell growth inhibition, Bcap37; type: cell-based; settings: 48 hours
Description: as §1, §2

[6] = tested on: human colon cancer cell line HCT116 subcutaneous transplanted tumor; test: Tumor-bearing test in nude mice, HCT116 subcutaneous transplanted tumor (tumor volume, TUNEL); type: in vivo; settings: HCT116 model; for Extent of apoptosis in tumor tissue (TUNEL staining, rank order): frozen tumor sections, DAPI and TUNEL, G group = blank; for Inhibitory effect on the growth of subcutaneous transplanted tumor tissue in nude mice (rank order, from slope of tumor volume): compound A 2 mg/kg first 8 times, 10 mg/kg last 4 times, others equimolar, KB = blank
Description: Tumor-Bearing Test in Nude Mice—Inhibitory Effect of 6-Dithio-Substituted-2′-Deoxyguanosine Derivatives on the Growth of Subcutaneous Transplanted Tumor Tissue in Nude Mice
1) Tumor-Bearing Mouse Model of Human Colon Cancer Cell Line HCT116
(§3) We took human colon cancer cell line HCT116 as the research object, and established a subcutaneous transplanted tumor model of human colon cancer in 32 immunodeficient nude mice. The 24th generation HCT116 cells in logarithmic growth phase were digested with pancreatin to prepare a single-cell suspension, and 1×10^7 cells were inoculated subcutaneously in the right armpit of male nude mice about 5 weeks old. After inoculation, cyclophosphamide (100 mg/kg) was injected intraperitoneally for two consecutive days. […] On the 20th day after colon cancer cell HCT116 was implanted subcutaneously, nude mice were divided into 7 groups by a random number table method, including a test drug group, a positive control group and a blank control group. Specifically, group A: the compound A was administrated; Group B: the compound B was administrated; Group C: the compound C was administrated; Group D: the compound D was administrated; Group E: the compound 6-thio-DG was administrated; Group F: the compound PX-12 was administrated; Group G: blank group, without administration of any compound. Except group C with 3 rats and group G with 4 rats, all other 5 groups had 5 rats, they mice were labeled and injected by tail vein once every two days for 24 days, 12 times, with the dose of compound A being 2 mg/kg for the first 8 times and 10 mg/kg for the last 4 times, and the dosages of other drugs being the same molar weights. The tumor volume was calculated by taking the length of the tumor as the longest diameter and the width as the corresponding vertical diameter, and the tumor volume V=(length×width^2) mm^3/2. 48 hours after the last treatment, blood was taken from the eyes, and then the animals were killed. Blood was centrifuged to get the supernatant, and then blood biochemical analysis was performed. Paraffin embedded sections of fixed tissues were stained with HE. The tumor mass in a frozen tissue was sectioned in a frozen state, and then stained by DAPI and TUNEL to judge the apoptosis of the tumor tissue in nude mice.

NCM460 = test: MTT assay, cell growth inhibition, NCM460; type: cell-based; settings: Homo sapiens, 48 hours, read-out: Tumor cell growth inhibition IC50, NCM460
Description: as §1, §2

[7] = Blood biochemical analysis and HE staining of tissues in HCT116 tumor-bearing nude mice; type: in vivo; settings: tail vein once every two days, 12 times, blood 48 hours after the last treatment
Experimental: as §3

[8] = tested on: human colon cancer cells HCT116; test: MTT assay, tumor cell growth inhibition, HCT116; type: cell-based; settings: HCT-116, 48 hours
Description: as §1, §2

[9] = tested on: human non-small cell lung cancer A549; test: MTT assay, tumor cell growth inhibition, A549; type: cell-based; settings: 48 hours
Description: as §1, §2

[10] = tested on: human colon cancer cells SW620; test: MTT assay, tumor cell growth inhibition, SW620; type: cell-based; settings: SW-620, 48 hours
Description: as §1, §2

[11] = tested on: human breast cancer cells MCF7; test: MTT assay, tumor cell growth inhibition, MCF7; type: cell-based; settings: 48 hours
Description: as §1, §2

[12] = Ellman reaction, 37° C. 30 min, absorbance 412 nm, read-out: IC50, inhibition of TrxR/Trx-1 activity
[13] = tail vein once every two days for 24 days

pIC50 [1] | pIC50 (TrxR/Trx-1; [12]) | pIC50 [2] | pIC50 [3] | pIC50 [4] | pIC50 [5] | Alanine aminotransferase [7] [U/L] | Albumin [7] [g/L] | Alkaline phosphatase [7] [U/L] | Aspartate aminotransferase [7] [U/L] | BUN [7] [mmol/L] | Chloride ion [7] [mmol/L] | Creatine kinase [7] [U/L] | Creatinine [7] [µmol/L] | Glucose [7] [mmol/L] | Potassium ion [7] [mmol/L] | pIC50 [8] | SMILES | Extent of apoptosis in tumor tissue (TUNEL staining, rank order) [6] | Inhibitory effect on the growth of subcutaneous transplanted tumor tissue in nude mice (rank order, from slope of tumor volume) [6, 13] | pIC50 (NCM460) | further results
5.51 | 4.32 | 4.30 to 5.00 | 5.13 | 4.54 | 4.45 | 25.5 | 27.9 | 33.7 | 128.3 | 9.00 | 120.5 | 980.7 | 6.67 | 2.99 | 6.17 | 4.66 | CC(C)(C)SSc1nc(N)nc2c1ncn2C1C[C@H](O)[C@@H](CO)O1 (stereo partly shown) [Compound C, 6-(tert-butyldithio)-2′-deoxyguanosine] | D group>A group≈B group≈E group (6-thio-dG group)>C group>F group (PX-12 group)>G group (KB group) | D>B≈A≈6-thio-dG>PX-12>C>KB | < 3.00 | Sodium ion [7]: 159.0 mmol/L; Total bilirubin [7]: 0.80 µmol/L; Total cholesterol [7]: 2.65 mmol/L; Total protein [7]: 51.6 g/L; Triglyceride [7]: 1.15 mmol/L; pIC50 [9]: 4.45
6.28 |  | > 5.00 | 5.52 | 4.99 | 4.68 | 105.9 | 26.3 | 31.0 | 254.4 | 14.8 | 124.0 | 2169 | 8.67 | 2.29 | 6.26 | 5.58 | Nc1nc(SSCc2ccc(F)cc2)c2ncn(C3C[C@H](O)[C@@H](CO)O3)c2n1 (stereo partly shown) [B, 6-(p-fluorobenzyldithio)-2′-deoxyguanosine] | D group>A group≈B group≈E group (6-thio-dG group)>C group>F group (PX-12 group)>G group (KB group) | D>B≈A≈6-thio-dG>PX-12>C>KB | < 3.00 | pIC50 (TrxR/Trx-1; read-out: TrxR/Trx-1 IC50): 5.01; pIC50 [10]: 5.77; pIC50 [11]: 4.81; Ability to inhibit the growth of transplanted tumor tissue compared with positive controls ([6]; tail vein once every two days for 24 days, equimolar doses): close to that of the positive control 6-thio-dG and stronger than that of the positive control PX-12; Sodium ion [7]: 158.0 mmol/L; Total bilirubin [7]: 0.90 µmol/L; Total cholesterol [7]: 2.76 mmol/L; Total protein [7]: 50.7 g/L; Triglyceride [7]: 0.52 mmol/L; pIC50 [9]: 4.87
 | < 4.00 |  | 5.03 | 5.10 | < 4.00 |  |  |  |  |  |  |  |  |  |  | 4.55 | Nc1nc(Cl)nc2c1ncn2[C@H]1C[C@H](O)[C@@H](CO)O1 [Cladribine, reference compound] |  |  | < 3.00 | pIC50 [10]: < 4.00; pIC50 [11]: < 4.00
5.53 | 5.59 | 4.30 to 5.00 | 5.47 | 4.66 | < 4.00 | 30.8 | 33.0 | 44.2 | 169.0 | 8.10 | 109.9 | 1434 | 3.20 | 1.47 | 7.64 | 4.46 | CCC(C)SSc1ncc[nH]1 (stereo not shown) [PX-12, 1-methylpropyl-2-imidazolyl disulfide, reference compound] | D group>A group≈B group≈E group (6-thio-dG group)>C group>F group (PX-12 group)>G group (KB group) | D>B≈A≈6-thio-dG>PX-12>C>KB | < 3.00 | pIC50 [10]: 5.77; pIC50 [11]: < 4.00; Sodium ion [7]: 155.8 mmol/L; Total bilirubin [7]: -0.90 µmol/L; Total cholesterol [7]: 2.53 mmol/L; Total protein [7]: 56.9 g/L; Triglyceride [7]: 1.18 mmol/L; pIC50 [9]: 5.13
